From US4087561A, “Control of nitrosamine formation in nitride cured meat with 1,2,3,4-tetrahydro-quinoline compounds” (Canada Packers Limited, priority 1975, dated 1978)

Legend:
[1] = Stability of the compound; assay type: physicochemical
[2] = Volatile nitrosamines in cook-out fat of fried bacon cured with pumping pickle containing test compound; settings: 150 mg = 50 ppm, in Tween 60, control sample 21 ppb
Description: This example is representative of the use of compounds of the general formula given above in a pumping pickle.
A single pork belly (13.2 lb) was cut along the short dimension into two equal portions. Production pickle (300g), of a composition which has been generally described above, was pumped into one portion to be used as control. The other half was pumped with the same production pickle (300g) to which 1,2,3,4-tetrahydro-2,2,4-trimethyl-6-ethoxyquinoline, prepared as described in Example 1, (150 mg .ident. 50 ppm) in Tween 60 (500 mg) had been dispersed. Both portions were subsequently smoked, chilled, sliced, and packaged normally. The samples were then analyzed for nitrite content. The amount of nitrite found just before frying was 75 ppm in the control sample and 73 ppm in the test sample.
Each sample of the bacon was then fried under standard frying conditions and the cook-out fat analyzed for volatile nitrosamines.

[3] = Control of nitrosamine formation in nitrite cured meat (general statements)
[4] = Volatile nitrosamine content of cook-out fat from fried nitrite-cured bacon slices streaked with test compound in soya oil; settings: for nitrosamine content of the fried meat: inferred from cook-out fat content; for nitrosamine content of cook-out fat from the test sample: 100 ppm on bacon slices, control sample 15 ppb
Procedure: A portion of the foregoing product was dissolved in winterized soya oil to provide a 4.5% concentration and the resulting solution was streaked on bacon slices, which had undergone a conventional nitrite cure and plant processing, in quantities providing levels of 1,2,3,4-tetrahydro-2,2,4-trimethyl-6-ethoxyquinoline of from 5 ppm to 100 ppm in the meat. Control slices of bacon were streaked with the oil alone. The bacon slices were fried under standardized conditions and the cook-out fat was analyzed for volatile nitrosamine content.
Since the analytical means available are not accurate below about 3 ppb (parts per billion), it will be seen that at levels of about 20 parts per million and greater of the test compound in the meat the amount of nitrosamines in the cook-out fat was reduced below the accurately determinable level.
A portion of the 1,2,3,4-tetrahydro-2,4-diethyl-2-methyl-6-methoxyquinolineprepared as above was dissolved in winterized soya oil (4.5% concentration) and the resulting solution was streaked on nitrite cured, plant processed bacon slices at a level of 100 ppm in the meat. Control slices of bacon received oil alone. The bacon slices were fried and the cook-out fat was analyzed for volatile nitrosamine content as in Example 1.

[5] = cited from earlier work

## CCOc1ccc2c(c1)C(C)CC(C)(C)N2 (stereo not shown) [1,2,3,4-tetrahydro-2,2,4-trimethyl-6-ethoxyquinoline]
[1]; crystalline solid, room temperature
  stability at room temperature: quite stable at room temperature
[2]
  volatile nitrosamines in cook-out fat of test sample: did not show any detectable nitrosamine
[3]
  effectiveness in the control of nitrosamines in nitrite cured meats, compared with ethoxyquin: equally effective
[4]; Table I sample 1, 100 ppm in meat, control product 29 ppb
  Nitrosamines in cook-out fat, test product: 0 ppb
[4]; Table I sample 2, 80 ppm in meat, control product 19 ppb
  Nitrosamines in cook-out fat, test product: 2 ppb
[4]; Table I sample 3, 40 ppm in meat, control product 19 ppb
  Nitrosamines in cook-out fat, test product: 3 ppb
[4]; Table I sample 4, 20 ppm in meat, control product 19 ppb
  Nitrosamines in cook-out fat, test product: 1 ppb
[4]; Table I sample 5, 10 ppm in meat, control product 19 ppb
  Nitrosamines in cook-out fat, test product: 0 ppb
[4]; Table I sample 6, 10 ppm in meat, control product 18 ppb
  Nitrosamines in cook-out fat, test product: 2 ppb
[4]; Table I sample 7, 5 ppm in meat, control product 19 ppb
  Nitrosamines in cook-out fat, test product: 5 ppb
[4]; Table I sample 8, 20 ppm in meat, control product 31 ppb
  Nitrosamines in cook-out fat, test product: 0 ppb
[4]; Table I sample 9, 10 ppm in meat, control product 31 ppb
  Nitrosamines in cook-out fat, test product: 10 ppb
[4]; Table I sample 10, 5 ppm in meat, control product 31 ppb
  Nitrosamines in cook-out fat, test product: 22 ppb
[4]; Table I sample 11, 20 ppm in meat, control product 36 ppb
  Nitrosamines in cook-out fat, test product: 5 ppb
[4]; Table I sample 12, 10 ppm in meat, control product 36 ppb
  Nitrosamines in cook-out fat, test product: 8 ppb
[4]; Table I sample 13, 5 ppm in meat, control product 36 ppb
  Nitrosamines in cook-out fat, test product: 6 ppb
[4]; Table I sample 14, 100 ppm in meat, control product 49 ppb
  Nitrosamines in cook-out fat, test product: 1 ppb
[4]; Table I sample 15, 20 ppm in meat, control product 39 ppb
  Nitrosamines in cook-out fat, test product: 3 ppb
[4]; Table I sample 16, 10 ppm in meat, control product 39 ppb
  Nitrosamines in cook-out fat, test product: 15 ppb
[4]; Table I sample 17, 20 ppm in meat, control product 25 ppb
  Nitrosamines in cook-out fat, test product: 2 ppb
[4]; Table I sample 18, 10 ppm in meat, control product 25 ppb
  Nitrosamines in cook-out fat, test product: 4 ppb
[4]
  nitrosamine content of the fried meat: virtually eliminated
[4]; lesser amounts (below about 20 ppm in meat)
  reduction in the amount of nitrosamines formed: significant reduction in the amount of nitrosamines formed, in some instances reducing the nitrosamines below the accurately detectable level
[4]; levels of about 20 ppm and greater in meat, reduced below the accurately determinable level (about 3 ppb)
  amount of nitrosamines in the cook-out fat: below 3 ppb

## CCOc1ccc2c(c1)C(CC)CC(C)(CC)N2 (stereo not shown) [1,2,3,4-tetrahydro-2,4-diethyl-2-methyl-6-ethoxyquinoline]
[4]
  nitrosamine content of cook-out fat from the test sample: zero

## CCC1CC(C)(CC)Nc2ccc(OC)cc21 (stereo not shown) [1,2,3,4-tetrahydro-2,4-diethyl-2-methyl-6-methoxyquinoline]
[4]; Table II sample 1, 100 ppm in meat, control product 51 ppb
  Nitrosamines in cook-out fat, test product: 2 ppb
[4]; Table II sample 2, 100 ppm in meat, control product 15 ppb
  Nitrosamines in cook-out fat, test product: 0 ppb
[4]; each test sample of Table II, 100 ppm in meat, reduced below the accurately detectable level
  nitrosamine content of the cook-out fat: < 3 ppb
[4]
  nitrosamine content of the fried meat: virtually free of such substances

## CCOc1ccc2c(c1)C(C)CC(C)(CC(C)C)N2 (stereo not shown) [1,2,3,4-tetrahydro-2,4-dimethyl-2-isobutyl-6-ethoxyquinoline]
[4]
  nitrosamine content of cook-out fat from the test sample: 0.6 ppb

## COc1ccc2c(c1)CCCN2 [1,2,3,4-tetrahydro-6-methoxyquinoline]
[4]
  nitrosamine content of cook-out fat from the test sample: 0.6 ppb

## O=NN1CCCC1 [N-nitrosopyrrolidine]
[5]
  carcinogenicity in tests on experimental animals: carcinogenic

## CN(C)N=O [dimethylnitrosamine]
[5]
  carcinogenicity in tests on experimental animals: carcinogenic

## CCOc1ccc2c(c1)C(C)=CC(C)(C)N2 [ethoxyquin, 1,2-dihydro-2,2,4-trimethyl-6-ethoxyquinoline, reference compound]
[1]; oily yellow liquid, presence of air
  stability in the presence of air (darkening): rather quickly turns dark in the presence of air
